According to patent US20230406803A1, “TROPOLONE DERIVATIVES AND TAUTOMERS THEREOF FOR IRON REGULATION IN ANIMALS” (Kinesid Therapeutics, Inc, priority 2020, published 2023):

Key:
[1] = tested on: DMT1-deficient Caco-2 cells; experiment: shDMT1-Caco2 55Fe transport assay; assay type: cell-based; conditions: Caco-2
Description: Assay 2: shDMT1-Caco2 ^55Fe Transport Assay to Assess Ligand Ability in Transporting Fe (III)
Cells: DMT1-deficient Caco-2 cells (alias: “shDMT1,” or “4A” cells) were from Grillo et al. Science, 2017, and were cryopreserved in liquid nitrogen prior to use.
Reagents and supplies: ^55FeCl3 was obtained from PerkinElmer (Boston, MA). Iron(III) chloride (FeCl3) hexahydrate was obtained from Sigma. Dulbecco's Modified Eagle Medium (DMEM), fetal bovine serum (FBS), L-glutamine, MEM nonessential amino acids, penicillin-streptomycin, G418, formic acid, methanol, high-purity water, ammonium formate, dimethyl sulfoxide (DMSO) were purchased from Fisher Scientific. Propranolol, atenolol and carbutamide were obtained from Sigma-Aldrich Chemical Company (St Louis, MO). Scintillation cocktail was obtained from Research Product International Co. (Mount Prospect, IL). Stericup filter system (PES membrane, 0.22 um pore size) was purchased from Fisher Scientific. Corning item #3378 24-well transwell insert plates.
Test articles: known compounds hinokitiol and deferiprone were purchased from Sigma. They are tested side by side with the small molecule ligands disclosed in this application. DMSO stocks (10 mM, which is 1,000× of the 10 μM dose level) of hinokitiol or test articles were prepared. A stock solution of 25 mM deferiprone in DMSO was prepared. The DMSO stock solutions were stored at −20° C. or below when not in use.
The growth medium was prepared according to the following table
Apical media (serum free DMEM, 10 mM MES, pH 6.5) was prepared. Apical master mix media was prepared fresh with the addition of 200 nM ^55Fe before each experiment. For the negative control propranolol and atenolol wells, 200 nM of non-radioactive iron was used.
The basolateral media was serum-free DMEM, 10 mM HEPES, 2% bovine serum albumin (BSA), pH 7.4.
For each experiment, cells were seeded into the 24-well transwell plates (0.5 mL of 50,000 cells/mL) with growth media. The basolateral companion plate was loaded with 1 mL of growth media. After 12-24 hr, both the apical and basolateral chamber were replaced with growth media. The apical media was changed 3× per week for 21-28 days, including a media change exactly 48 hr before the assay date.
On the assay day, the TEER values were measured and the average TEER value was obtained. Individual wells with TEER value >35% lower than the average of all wells were excluded. For the qualified wells, the apical layer (twice) and basolaterial (once) chambers were washed with PBS. The basolateral companion plate was then filled with 1 mL of basolateral media. Via addition down the side-wall of the apical well, 300 μL per well of the apical assay master mix, with the indicated dose level of test article, was added. Each dose was tested in triplicate. The plates were incubated (5% CO2 and 90% humidity at 37° C.) for the indicated timepoints. At each indicated timepoint, the basolateral supernatant was gently mixed via pipetting, and 200 μL of the basolateral supernatant was transferred to scintillation vials. To each scintillation counting vial, 5 mL of scintillation cocktail fluid was added. For each scintillation vial, the radioactivity (CPM) was determined with liquid scintillation counter LS6500. The counting time per vial was 5 min.
All raw CPM values are divided by the average value of blank DMSO solution to give a fold of change above the DMSO value. The mean and standard deviation of each compound at each concentration level and at each time point measured was calculated to give the fold change (fc) value. For rank order compounds, the fc value of a ligand at 4 h time point is further divided by the fold change (fc) value of hinokitiol (a positive control compound) at an equimolar concentration to arrive at the FC (normalized fold of change) value. Data reported in Tables 1 and 2 is 4 hr time point FC=fc-ligand @ 3 uM/fc-hino @ 3 μM, and FC hino=1.

[2] = Ligand facilitated Fe(III) efflux from liposomes; assay type: biochemical; set-up: unit not given here; conditions: efflux rate k at 10 μM ligand concentration; ferrozine absorbance 562 nm, 120 min kinetic read
Experimental: Assay 1: Ligand Facilitated Fe(III) Efflux from Liposomes
Preparation of POPC (1 palmitoyl-2-oleoyl-sn-glycero-3 phosphocholine): Cholesterol Liposomes
A 1M buffer solution of MES and Tris was prepared by dissolving 121.14 grams of Tris base and 213.25 grams of MES hydrate in 500 mL of MilliQ water and adjusted to pH7.0 using an […] HCl solution before bringing the total volume of the solution to 1 L. A 500 mM solution of FeCl3 was prepared by dissolving 0.811 grams of anhydrous FeCl3 in 10 mL of a 0.1M H2SO4 aqueous solution. Inside buffer is prepared in a 50 mL falcon tube, which was added with 25 mL of MilliQ water, 1.61 g of sodium citrate, 1.5 mL of the above FeCl3 solution, and 2.5 mL of the 1M MES/Tris HCl buffer (pH=7.0), and finally additional MilliQ H2O to bring to a 50 mL final volume.
Lipid solution is prepared by dissolving 206.9 mg of POPC (1-palmitoyl-2-oleoyl-sn-glycero-3-phosphocholine) and 8.6 mg of cholesterol in 10 mL of ethanol.
The lipids solution and the inside buffer solution are independently loaded into 10 mL luer lock syringes for loading into a virgin cartridge on a Precision Nanosystems NanoAssembler to prepare unilamaller liposomes with the following parameters: 7.5 mL total volume, 1.5:1 mixing ratio of inside buffer:lipids solution, 8 mL/min flow rate, ambient temperature, 0.35 mL start waste, and 0.05 mL of end waste. 7.5 mL of liposomes is harvested for purification on a 6-inch long, 1-inch diameter Sephadex G-50 column wetted in 600 mM sodium ascorbate and 50 mM MES/Tris HCl pH 7.0 buffer. This buffer also serves as the column running buffer. The crude liposome solution is carefully loaded with minimal volume of running buffer above the top of the Sphadex, allowed to enter the matrix, and the column is run with the continued addition of running buffer. The eluting liposomes, observed as a milky and turbid solution, are collected until free iron begins to elute (observed as a deep purple color) and the fractions are pooled for phosphorus quantitation.
Determination of Phosphorus Content:
Phosphorus content of eluted liposomes was determined by the process outlined below. 10 μL of liposome elution and a running buffer blank are added to a 5 mL glass vial containing 450 μL of a 8.9 M aqueous H2SO4 solution, the mixture is heated to 225° C. for 25 minutes in an aluminum heat block to hydrolyze POPC and cooled for 5 minutes. 200 μL of a 30% hydrogen peroxide aqueous solution is added to each vial and heated to 225° C. for 25 minutes. After cooling, the phosphorus content was determined using an Abcam Phosphate Assay kit, with buffer subtracted phosphorus levels determined against a standard curve of phosphate included in the kit. Liposomes were diluted to 1 mM phosphate in Running Buffer for use in assays after accounting for dilutions made during phospholipid digestion.
Determination of the Iron Transporting Rate Constant of the Ligands:
Determination of the rate at which a small molecule ligand liberates (transport) Ferric iron from liposomes is performed in clear bottom black 384-well plates on a Spectramax i3x set to read the absorbance at 562 nm in the kinetic mode every 60 seconds for 120 minutes. 1 μL of serially diluted DMSO stock solution of a small molecule ligand is added to wells in triplicate to give the final concentrations of 40, 20, 10, 5, 2.5, and 1.25 uM of the ligand at 80 μL final volume, followed by addition of 1 μL of 100 mM Ferrozine in water to give a final concentration of 1 mM ferrozine. 78 μL of liposomes diluted to 1 mM phosphorus in running buffer is added to wells as quickly as possible (using a digital repeater multichannel pipette) with the kinetic read initiated as rapidly as possible after addition of liposomes to all wells. Typically, eight compounds at six concentrations are tested in triplicate simultaneously. […]

Mouse 6-hour PK study = conditions: mouse, in vivo
Description: Useful such assays include, but are not limited to e.g., those measurements made in PK studies, such as rodent and non-human primate PK studies, including e.g., mouse (such as mouse 6-hour PK studies), rat PK studies, cynomolgus or rhesus PK studies, or the like. Useful measurements obtained in such PK studies include but are not limited to e.g., maximum concentration (Cmax) reflecting the “peak” of a drug observed after its administration that can reflect not only the rate but also the extent of absorption, area under the curve (AUC) representing the area under the plot of tissue (e.g., plasma) concentration against time after drug administration which is of particular use in estimating bioavailability of drugs and drug total clearance, half-life (t1/2) or the period of time required for the concentration or amount of drug to be reduced to exactly one-half of a given concentration or amount that indicates the persistence of the drug in its volume of distribution, and the like.
Such assessments included human and mouse liver microsomal stability assays as well as 6-hour mouse PK studies.

| Compound | Caco2 shDMT1 transport FC @ 3 μM, 4 h [1] | Liposome Fe transport kefflux at 10 μM [2] | also measured |
| --- | --- | --- | --- |
| O=c1ccc(C2CCOCC2)ccc1O | 0.01-0.5 | 0.1-5 |  |
| Cc1ccc(C2CC2)cc(O)c1=O | 0.5-1 | 7.5-10 |  |
| O=c1ccccc(OC2CC3(CC3)C2)c1O [drawing 259] | 1-5 | 10-25 |  |
| CCc1cccc(F)c(=O)c1O | 0.01-0.5 | 10-25 |  |
| Cc1cc(C(C)C)ccc(O)c1=O [drawing 203] | 1-5 | 10-25 |  |
| CC(C)c1ccc(F)c(=O)c(O)c1 [drawing 176] | 0.01-0.5 | 10-25 |  |
| CCc1ccc(C)c(=O)c(O)c1 | 0.5-1 | 5-7.5 |  |
| Cc1c(C2CC2)cccc(=O)c1[O-].[Na+] | 0.5-1 | 0.1-5 |  |
| O=c1ccccc(C2CCCO2)c1S (stereo not shown) | 0.01-0.5 | 7.5-10 |  |
| CCc1ccc(O)c(=O)c(C)c1 | 1-5 | 5-7.5 |  |
| Cc1cccc(C(C)C)c(O)c1=O [drawing 205] | 0.5-1 | 5-7.5 |  |
| O=c1ccc(C2CCC2)ccc1O | 0.01-0.5 | 10-25 |  |
| CC(C)c1cccc(F)c(=O)c1O [drawing 179] | 0.01-0.5 | 10-25 |  |
| O=c1ccccc(OC2COC2)c1O | 0.01-0.5 | 0.1-5 |  |
| O=c1ccc(C2CCCO2)ccc1O (stereo not shown) | 0.01-0.5 | 7.5-10 |  |
| CC(C)c1ccc(F)c(=O)c(O)c1F | 0.01-0.5 | 7.5-10 |  |
| CCc1cccc(Cl)c(=O)c1O | 0.01-0.5 | 7.5-10 |  |
| CCOc1cccc(=O)c(O)c1 | 0.5-1 | 5-7.5 |  |
| COc1cccc(=O)c(O)c1 | 0.01-0.5 | 5-7.5 |  |
| O=c1ccccc(C2CCOCC2)c1O [drawing 183] | 1-5 | 0.1-5 |  |
| O=c1ccc(OC2COC2)ccc1O [drawing 187] | 0.01-0.5 | 5-7.5 |  |
| O=c1ccccc(OC2CC(F)(F)C2)c1O | 1-5 | 7.5-10 |  |
| Cc1cccc(C)c(=O)c1O | 1-5 | 10-25 |  |
| Cc1cccc(F)c(=O)c1O [drawing 207] | 0.01-0.5 | 10-25 |  |
| O=c1ccccc(C2CCCO2)c1O (stereo not shown) | 1-5 | 10-25 |  |
| Cc1ccc(C)c(=O)c(O)c1 | 1-5 | 0.1-5 |  |
| CC1(C)CCC(c2cccc(=O)c(O)c2)C1 (stereo not shown) | 0.01-0.5 | 5-7.5 |  |
| Cc1cc(C(C)C)ccc(O)c1=O [Ex. 28, 7-hydroxy-4-isopropyl-2-methylcyclohepta-2,4,6-trien-1-one] |  |  | AUC(0-t) (Mouse 6-hour PK study): < 499 ng·h/mL; Cmax (Mouse 6-hour PK study): < 499 ng/mL; half-life (Mouse 6-hour PK study): 75 to 299 min; mouse 6-hour PK properties as compared to hinokitiol (Mouse 6-hour PK study): one or more improved mouse 6-hour PK properties as compared to hinokitiol |
